Results from PubChem BioAssay AID1259407 (Chemical Carcinogenesis Research Information System (CCRIS), 2018).
Calls of active or inactive are those of the source. No rule for the calls is given here.

System: CCRIS mutagenicity, Ames/micronucleus/aberration tests
Assay: CCRIS mutagenicity studies

## C=O
End Point: IN VITRO CHROMOSOMAL ABERRATIONS, Test System: SYRIAN HAMSTER EMBRYO (SHE) CELLS, Metabolic Activation: NONE
  mutagenic call: active; positive (structural changes)
End Point: In vitro chromosomal aberrations, Test System: Chinese hamster ovary (CHO) cells, Metabolic Activation: None
  mutagenic call: active; positive
End Point: In vitro chromosomal aberrations, Test System: Chinese hamster ovary (CHO) cells, Metabolic Activation: S-9
  mutagenic call: active; positive
End Point: In vivo micronucleus, Test System: Peripheral blood erythrocytes, Species: Rat, Strain/Sex: F344/DuCrl / Male, Route: Inhalation
  mutagenic call: inactive; negative
Test System: AMES SALMONELLA TYPHIMURIUM, Strain/Indicator: TA97, Metabolic Activation: NONE, Method: PREINCUBATION
  mutagenic call: inactive; negative
Test System: AMES SALMONELLA TYPHIMURIUM, Strain/Indicator: TA97, Metabolic Activation: NONE, Method: STANDARD PLATE
  mutagenic call: active; positive
Test System: AMES SALMONELLA TYPHIMURIUM, Strain/Indicator: TA98, Metabolic Activation: RAT, LIVER, S-9, AROCLOR 1254, Method: PREINCUBATION
  mutagenic call: active; positive
Test System: AMES SALMONELLA TYPHIMURIUM, Strain/Indicator: TA98, Metabolic Activation: RAT, LIVER, S-9, AROCLOR 1254, Method: STANDARD PLATE
  mutagenic call: active; positive
Test System: AMES SALMONELLA TYPHIMURIUM, Strain/Indicator: TA100, Metabolic Activation: MOUSE LIVER S-9, AROCLOR 1254, Method: PREINCUBATION
  mutagenic call: active; positive
Test System: AMES SALMONELLA TYPHIMURIUM, Strain/Indicator: TA100, Metabolic Activation: NONE, Method: SUSPENSION
  mutagenic call: active; positive
Test System: AMES SALMONELLA TYPHIMURIUM, Strain/Indicator: TA100, Metabolic Activation: RAT LIVER S-9, AROCLOR 1254, Method: PREINCUBATION
  mutagenic call: active; positive
Test System: AMES SALMONELLA TYPHIMURIUM, Strain/Indicator: TA100, Metabolic Activation: RAT, LIVER, S-9, AROCLOR 1254, Method: STANDARD PLATE
  mutagenic call: active; positive
Test System: AMES SALMONELLA TYPHIMURIUM, Strain/Indicator: TA100, Metabolic Activation: RAT, LIVER, S-9, AROCLOR 1254, Method: SUSPENSION
  mutagenic call: active; positive
Test System: AMES SALMONELLA TYPHIMURIUM, Strain/Indicator: TA100, Metabolic Activation: RAT, LIVER, S-9, AROCLOR, Method: STANDARD PLATE
  mutagenic call: active; positive
Test System: AMES SALMONELLA TYPHIMURIUM, Strain/Indicator: TA102, Metabolic Activation: NONE, Method: FLUCTUATION TEST
  mutagenic call: active; positive
Test System: AMES SALMONELLA TYPHIMURIUM, Strain/Indicator: TA102, Metabolic Activation: NONE, Method: PREINCUBATION
  mutagenic call: active; positive
Test System: AMES SALMONELLA TYPHIMURIUM, Strain/Indicator: TA104, Metabolic Activation: MOUSE LIVER S-9, AROCLOR 1254, Method: PREINCUBATION
  mutagenic call: active; positive
Test System: AMES SALMONELLA TYPHIMURIUM, Strain/Indicator: TA104, Metabolic Activation: NONE, Method: PREINCUBATION
  mutagenic call: active; positive
Test System: AMES SALMONELLA TYPHIMURIUM, Strain/Indicator: TA104, Metabolic Activation: RAT LIVER S-9, AROCLOR 1254, Method: PREINCUBATION
  mutagenic call: active; positive
Test System: AMES SALMONELLA TYPHIMURIUM, Strain/Indicator: TA104, Metabolic Activation: RAT, LIVER, S-9, AROCLOR 1254, Method: PREINCUBATION
  mutagenic call: active; positive
Test System: AMES SALMONELLA TYPHIMURIUM, Strain/Indicator: TA1535, Metabolic Activation: NONE, Method: PREINCUBATION
  mutagenic call: inactive; negative
Test System: AMES SALMONELLA TYPHIMURIUM, Strain/Indicator: TA1535, Metabolic Activation: NONE, Method: STANDARD PLATE
  mutagenic call: inactive; negative
Test System: AMES SALMONELLA TYPHIMURIUM, Strain/Indicator: TA1535, Metabolic Activation: RAT, LIVER, S-9, AROCLOR 1254, Method: PREINCUBATION
  mutagenic call: inactive; negative
Test System: AMES SALMONELLA TYPHIMURIUM, Strain/Indicator: TA1535, Metabolic Activation: RAT, LIVER, S-9, AROCLOR 1254, Method: STANDARD PLATE
  mutagenic call: inactive; negative
Test System: AMES SALMONELLA TYPHIMURIUM, Strain/Indicator: TA1537, Metabolic Activation: NONE, Method: PREINCUBATION
  mutagenic call: inactive; negative
Test System: AMES SALMONELLA TYPHIMURIUM, Strain/Indicator: TA1537, Metabolic Activation: RAT, LIVER, S-9, AROCLOR 1254, Method: PREINCUBATION
  mutagenic call: inactive; negative
Test System: AMES SALMONELLA TYPHIMURIUM, Strain/Indicator: TA1537, Metabolic Activation: RAT, LIVER, S-9, AROCLOR 1254, Method: STANDARD PLATE
  mutagenic call: active; positive
Test System: AMES SALMONELLA TYPHIMURIUM, Strain/Indicator: TA1538, Metabolic Activation: NONE, Method: PREINCUBATION
  mutagenic call: inactive; negative
Test System: AMES SALMONELLA TYPHIMURIUM, Strain/Indicator: TA1538, Metabolic Activation: NONE, Method: STANDARD PLATE
  mutagenic call: inactive; negative
Test System: AMES SALMONELLA TYPHIMURIUM, Strain/Indicator: TA2638, Metabolic Activation: NONE, Method: STANDARD PLATE
  mutagenic call: active; positive
Test System: AMES SALMONELLA TYPHIMURIUM, Strain/Indicator: TA2638A, Metabolic Activation: NONE, Method: PREINCUBATION
  mutagenic call: active; positive
Test System: AMES SALMONELLA TYPHIMURIUM, Strain/Indicator: UTH8413, Metabolic Activation: NONE, Method: STANDARD PLATE
  mutagenic call: inactive; negative
Test System: AMES SALMONELLA TYPHIMURIUM, Strain/Indicator: UTH8413, Metabolic Activation: RAT, LIVER, S-9, AROCLOR, Method: STANDARD PLATE
  mutagenic call: inactive; negative
Test System: AMES SALMONELLA TYPHIMURIUM, Strain/Indicator: UTH8414, Metabolic Activation: NONE, Method: STANDARD PLATE
  mutagenic call: inactive; negative
Test System: AMES SALMONELLA TYPHIMURIUM, Strain/Indicator: UTH8414, Metabolic Activation: RAT, LIVER, S-9, AROCLOR, Method: STANDARD PLATE
  mutagenic call: inactive; negative
Test System: CHINESE HAMSTER OVARY, Strain/Indicator: CHO-K1 (HPRT)/6-THIOGUANINE, Metabolic Activation: NONE, Method: SUSPENSION
  mutagenic call: active; positive
Test System: CHINESE HAMSTER OVARY, Strain/Indicator: CHO-K1 (HPRT)/6-THIOGUANINE, Metabolic Activation: NONE, Method: SUSPENSION/PLATE
  mutagenic call: inactive; negative
Test System: CHINESE HAMSTER V-79, Strain/Indicator: V-79/6-THIOGUANINE, Metabolic Activation: NONE
  mutagenic call: active; positive
Test System: E. COLI, Strain/Indicator: 016 POLA, Metabolic Activation: NONE, Method: PREINCUBATION
  mutagenic call: inactive; negative
Test System: E. COLI, Strain/Indicator: H/R30R, Metabolic Activation: NONE, Method: PREINCUBATION
  mutagenic call: active; positive
Test System: E. COLI, Strain/Indicator: HS30R UVRA, Metabolic Activation: NONE, Method: PREINCUBATION
  mutagenic call: active; positive
Test System: E. COLI, Strain/Indicator: K12(AB1157) (WILD TYPE), Metabolic Activation: NONE, Method: SUSPENSION/PLATE
  mutagenic call: active; positive
Test System: E. COLI, Strain/Indicator: K12(AB1886) (UVRA), Metabolic Activation: NONE, Method: SUSPENSION/PLATE
  mutagenic call: inactive; negative
Test System: E. COLI, Strain/Indicator: K12(AB2480) (RECA/UVRA), Metabolic Activation: NONE, Method: SUSPENSION/PLATE
  mutagenic call: inactive; negative
Test System: E. COLI, Strain/Indicator: NG30 RECA, Metabolic Activation: NONE, Method: PREINCUBATION
  mutagenic call: inactive; negative
Test System: E. COLI, Strain/Indicator: WP2 (PKM101), Metabolic Activation: NONE, Method: PREINCUBATION
  mutagenic call: active; positive
Test System: E. COLI, Strain/Indicator: WP2, Metabolic Activation: NONE, Method: PREINCUBATION
  mutagenic call: active; positive
Test System: E. COLI, Strain/Indicator: WP2 UVRA (PKM101), Metabolic Activation: NONE, Method: PREINCUBATION
  mutagenic call: active; positive
Test System: E. COLI, Strain/Indicator: WP2 UVRA (PKM101), Metabolic Activation: NONE, Method: STANDARD PLATE
  mutagenic call: active; positive
Test System: E. COLI, Strain/Indicator: WP2 UVRA, Metabolic Activation: NONE, Method: PREINCUBATION
  mutagenic call: active; positive
Test System: MOUSE LYMPHOMA, Strain/Indicator: L5178Y (TK+/TK-), Metabolic Activation: NONE, Method: SUSPENSION/PLATE
  mutagenic call: active; positive
